row,Structure (SMILES),melting point
1,"CC1=CC2=NC(=O)C(Cc3ccccc3)(Cc3ccccc3)N2C(C)=C1 [Compound 10, 3,3-dibenzyl-5,7-dimethylimidazo[1,2-a]pyridin-2(3H)-one]",237 to 238 °C
2,"C=CCC1(CC=C)C(=O)N=C2C=CC=CN21 [Compound 24, 3,3-diallylimidazo[1,2-a]pyridin-2(3H)-one]",64 to 66 °C
3,"O=C1N=C2C=CC=CN2C1(Cc1ccco1)Cc1ccco1 [Compound 32, 3,3-bis(2-furylmethyl)imidazo[1,2-a]pyridin-2(3H)-one]",205 °C (dec.)
4,"O=C1N=C2C=CC=CN2C1(Cc1cccs1)Cc1cccs1 [Compound 30, 3,3-bis(2-thienylmethyl)imidazo[1,2-a]pyridin-2(3H)-one]",289.5 °C (dec.)
5,"O=C1N=C2C=CC=CN2C1(Cc1ccc(F)cc1)Cc1ccc(F)cc1 [Compound 17, 3,3-bis(4-fluorobenzyl)imidazo[1,2-a]pyridin-2(3H)-one]",290 to 292 °C
6,"COC(=O)c1ccc(CC2(Cc3ccc(C(=O)OC)cc3)C(=O)N=C3C=CC=CN32)cc1 [Compound 40, 3,3-bis(4-methoxycarbonylbenzyl)imidazo[1,2-a]pyridin-2(3H)-one]",289 to 290 °C
7,"O=C1N=C2C(OCc3ccccc3)=CC=CN2C1(Cc1ccccc1)Cc1ccccc1 [Compound 7, 3,3-dibenzyl-8-benzyloxyimidazo[1,2-a]pyridin-2(3H)-one]",240 to 241 °C
8,"CC1(C)C(=O)N=C2C=CC=CN21 [Compound 33, 3,3-dimethylimidazo[1,2-a]pyridin-2(3H)-one]",200 to 202 °C
9,"O=C1N=C2C(Cl)=CC(Cl)=CN2C1(Cc1ccccc1)Cc1ccccc1 [Compound 13, 3,3-dibenzyl-6,8-dichloroimidazo[1,2-a]pyridin-2(3H)-one]",260 to 261 °C
10,"CC(=O)NC1=CC=CN2C1=NC(=O)C2(Cc1ccccc1)Cc1ccccc1 [Compound 31, 8-acetylamino-3,3-dibenzylimidazo[1,2-a]pyridin-2(3H)-one]",235 to 237 °C
11,"CC(C)OC1=CC=CN2C1=NC(=O)C2(Cc1ccccc1)Cc1ccccc1 [Compound 2, 3,3-dibenzyl-8-isopropoxyimidazo[1,2-a]pyridin-2(3H)-one]",247 to 248 °C
12,"O=C1N=C2SC=CN2C1(Cc1ccccc1)Cc1ccccc1 [Compound 44, 5,5-dibenzylimidazo[2,1-b]thiazol-6(5H)-one]",> 300 °C
13,"O=C1N=C2C(Cl)=CC(C(F)(F)F)=CN2C1(Cc1ccccc1)Cc1ccccc1 [Compound 14, 3,3-dibenzyl-8-chloro-6-trifluoromethylimidazo[1,2-a]pyridin-2(3H)-one]",234 to 236 °C
14,"CCCCC1(CCCC)C(=O)N=C2C=CC=CN21 [Compound 34, 3,3-dibutylimidazo[1,2-a]pyridin-2(3H)-one]",100.5 to 102 °C
15,"NC1=CC=CN2C1=NC(=O)C2(Cc1ccccc1)Cc1ccccc1 [Compound 39, 8-amino-3,3-dibenzylimidazo[1,2-a]pyridin-2(3H)-one]",283 to 285 °C
16,"C=CCC1(CC=C)C(=O)N=C2C(OCc3ccccc3)=CC=CN21 [Compound 25, 3,3-diallyl-8-benzyloxyimidazo[1,2-a]pyridin-2(3H)-one]",160 to 162 °C
17,"CN(C)c1ccc(CC2(Cc3ccc(N(C)C)cc3)C(=O)N=C3C=CC=CN32)cc1 [Compound 18, 3,3-bis(4-dimethylaminobenzyl)imidazo[1,2-a]pyridin-2(3H)-one]",> 300 °C
18,"O=C1N=C2C=CC(Cl)=CN2C1(Cc1ccccc1)Cc1ccccc1 [Compound 5, 3,3-dibenzyl-6-chloroimidazo[1,2-a]pyridin-2(3H)-one]",246 to 248 °C
19,"O=C1N=C2C=CC=CN2C1(Cc1ccc(O)cc1)Cc1ccc(O)cc1 [Compound 23, 3,3-bis(4-hydroxybenzyl)imidazo[1,2-a]pyridin-2(3H)-one]",276.5 to 277.5 °C
20,"O=C1N=C2C(OCC3CC3)=CC=CN2C1(Cc1ccccc1)Cc1ccccc1 [Compound 4, 3,3-dibenzyl-8-cyclopropylmethyloxy-imidazo[1,2-a]pyridin-2(3H)-one]",236 to 237 °C
21,"O=C1N=C2N=CC=CN2C1(Cc1ccccc1)Cc1ccccc1 [Compound 45, 3,3-dibenzylimidazo[1,2-a]pyrimidin-2(3H)-one]",> 300 °C
22,"O=C1N=C2C=CC=CN2C1(Cc1ccc(-c2ccccc2)cc1)Cc1ccc(-c2ccccc2)cc1 [Compound 21, 3,3-bis(4-biphenylmethyl)imidazo[1,2-a]pyridin-2(3H)-one]",> 300 °C
23,"C=CCOC1=CC=CN2C1=NC(=O)C2(Cc1ccccc1)Cc1ccccc1 [Compound 6, 8-allyloxy-3,3-dibenzylimidazo[1,2-a]pyridin-2(3H)-one]",214 to 215 °C
24,"C#CCC1(CC#C)C(=O)N=C2C=CC=CN21 [Compound 35, 3,3-di(2-propinyl)imidazo[1,2-a]pyridin-2(3H)-one]",172 to 175 °C

# Results, then the compound that gave them:
row,melting point,Structure (SMILES)
1,182 °C (dec.),"O=C1N=C2C=CC=CN2C1Cc1ccccc1 (stereo not shown) [Compound 54, 3-benzylimidazo[1,2-a]pyridin-2(3H)-one]"
2,293 to 296 °C,"O=C1N=C2C=CC=CN2C1(Cc1ccc(Cl)cc1)Cc1ccc(Cl)cc1 [Compound 78, 3,3-bis(4-chlorobenzyl)imidazo[1,2-a]pyridin-2(3H)-one]"
3,256 °C (dec.),"O=C1N=C2C=CC=CN2C12Cc1ccc3ccccc3c1C2 (stereo not shown) [Compound 65, spiro[imidazo[1,2-a]pyridin-2(3H)-one-3,2′-benzo[e]indan]]"
4,276.5 °C (dec.),"O=C1N=C2CCCCN2C12Cc1ccccc1C2 [Compound 77, spiro[5,6,7,8-tetrahydroimidazo[1,2-a]pyridin-2(3H)-one-3,2′-indan]]"
5,86 to 88 °C,"O=C1N=C2C=CC=CN2C12Cc1cc3nsnc3cc1C2 [Compound 61, spiro[imidazo[1,2-a]pyridin-2(3H)-one-3,2′-((1,2,5-thiadiazo)[4,5-c]indan)]]"
6,264 to 267 °C,"N#Cc1ccc(CC2(Cc3ccc(C#N)cc3)C(=O)N=C3SC=CN32)cc1 [Compound 47, 5,5-bis(4-cyanobenzyl)imidazo[2,1-b]thiazol-6(5H)-one]"
7,271.5 °C (dec.),"O=C1N=C2c3ccccc3C=CN2C12Cc1cc3nsnc3cc1C2 [Compound 62, spiro[imidazo[2,1-a]isoquinolin-2(3H)-one-3,2′-((1,2,5-thiadiazo)[4,5-c]indan)]]"
8,245 to 247 °C,"O=C1N=C2C=CC=CN2C1(C1C=CCCC1)C1C=CCCC1 (stereo not shown) [Compound 67, 3,3-bis(2-cyclohexenyl)imidazo[1,2-a]pyridin-2(3H)-one]"
9,205 °C (dec.),"Oc1nc2ccccn2c1Cc1ccc2ccccc2c1 [Compound 52, 2-hydroxy-3-(2-naphthylmethyl)imidazo[1,2-a]pyridine]"
10,150 to 152 °C,"COc1ccc2c(c1)CC1(C2)C(=O)N=C2C=CC=CN21 (stereo not shown) [Compound 57, spiro[imidazo[1,2-a]pyridin-2(3H)-one-3,2′-(5′-methoxyindan)]]"
11,176.5 to 179.5 °C,"O=C1N=C2C=CC=CN2C12Cc1ccc(C(F)(F)F)cc1C2 (stereo not shown) [Compound 64, spiro[imidazo[1,2-a]pyridin-2(3H)-one-3,2′-(5′-trifluoromethylindan)]]"
12,> 300 °C,"CC1=CN2C(=NC(=O)C2(Cc2ccccc2)Cc2ccccc2)S1 [Compound 48, 5,5-dibenzyl-2-methylimidazo[2,1-b]thiazol-6(5H)-one]"
13,134 to 137 °C,"O=C1N=C2C(OCC3CC3)=CC=CN2C12CC=CC2 [Compound 83, spiro[8-cyclopropylmethyloxyimidazo[1,2-a]pyridin-2(3H)-one-3,4′-(1′-cyclopentene)]]"
14,149.5 °C (dec.),"C/C=C/CC1(C/C=C/C)C(=O)N=C2N=CC=CN21 [Compound 55, 3,3-di(2-butenyl)imidazo[1,2-a]pyrimidin-2(3H)-one]"
15,195.5 °C (dec.),"O=C1N=C2N=CC=CN2C12Cc1ccccc1C2 [Compound 63, spiro[imidazo[1,2-a]pyrimidin-2(3H)-one-3,2′-indan]]"
16,233 to 236 °C,"O=C1N=C2SCCN2C1(Cc1ccccc1)Cc1ccccc1 [Compound 51, 5,5-dibenzyl-2,3-dihydroimidazo[2,1-b]thiazol-6(5H)-one]"
17,201 to 203 °C,"O=C1N=C2c3ccccc3C=CN2C12Cc1ccccc1C2 [Compound 60, spiro[imidazo[2,1-a]isoquinolin-2(3H)-one-3,2′-indan]]"
18,192 °C (dec.),"O=C1N=C2N=CC=CN2C1(Cc1cccs1)Cc1cccs1 [Compound 50, 3,3-bis(2-thienylmethyl)imidazo[1,2-a]pyrimidin-2(3H)-one]"
19,218 to 220 °C,"O=C1N=C2CCCCN2C1(C1CCCCC1)C1CCCCC1 [Compound 72, 3,3-dicyclohexyl-5,6,7,8-tetrahydroimidazo[1,2-a]pyridin-2(3H)-one]"
20,270.5 °C (dec.),"O=C1N=C2C3=C(C=CN2C12CCCC2)CCCC3 [Compound 74, spiro[7,8,9,10-tetrahydroimidazo[2,1-a]isoquinolin-2(3H)-one-3,1′-cyclopentane]]"
21,178.5 to 180.5 °C,"O=C1N=C2C(OCc3ccccc3)=CC=CN2C12CC=CC2 [Compound 70, spiro[8-benzyloxyimidazo[1,2-a]pyridin-2(3H)-one-3,4′-(1′-cyclopentene)]]"
22,286 °C (dec.),"O=C1N=C2SC=CN2C1(Cc1cccs1)Cc1cccs1 [Compound 49, 5,5-bis(2-thienylmethyl)imidazo[2,1-b]thiazol-6(5H)-one]"
23,139 to 142 °C,"C=CCC1(CC=C)C(=O)N=C2C(OCC3CC3)=CC=CN21 [Compound 79, 8-cyclopropylmethyloxy-3,3-diallylimidazo[1,2-a]pyridin-2(3H)-one]"
24,35 to 40 °C,"CCCCC1(CCCC)C(=O)N=C2CCCCN21 [Compound 73, 3,3-dibutyl-5,6,7,8-tetrahydroimidazo[1,2-a]pyridin-2(3H)-one]"
25,214 °C (dec.),"O=C1N=C2C=CC=CN2C12Cc1cc3ccccc3cc1C2 [Compound 53, spiro[imidazo[1,2-a]pyridin-2(3H)-one-3,2′-benzo[f]indan]]"

# From patent US20080103158A1, “METHODS FOR TREATING DELAYING THE PROGRESSION OF ALZHEIMER'S DISEASE WITH HETEROCYCLIC COMPOUNDS” (ZENYAKU KOGYO KABUSHIKI KAISHA, priority 2006, published 2008)
